Reference: US20130045940A1, “COMPOSITION COMPRISING AS ACTIVE INGREDIENT L-CARNITINE IN COMBINATION WITH A SOLAR FILTER, FOR THE PREVENTION AND/OR TREATMENT OF PATHOLOGIES OF THE EYE DUE TO ULTRAVIOLET RADIATION” (SIGMA-TAU INDUSTRIE FARMACEUTICHE RIUNITE S.P.A., priority 2010, published 2013)

Experiments:
corneal epithelium = test: protective effect on the corneal epithelium against UV A/B radiation in rabbits (morphology, TUNEL); type: in vivo, rabbit; settings: for damage to the DNA (TUNEL) / corneal tissue morphology (hematoxylin-eosin): treated left eye after UV exposure; for corneal tissue morphology (hematoxylin-eosin): compared with untreated animals; for EYE LEFT Score (arbitrary scale): treated left eye, instilled every 2 hours for eight hours, then 2091 seconds of UV 290/360 nm, Negative Control = 10, UV-exposed untreated right eye = 1
Procedure: In all the groups treated (groups 1-4) the right eye acted as a positive control. The following compositions were instilled respectively into the left eye every 2 hours for eight hours:
Then the animals were exposed for 2091 seconds to UV radiation using a xenon-mercury lamp, 5000 W, 290/360 nm, (Photochem. Photobiol. 1989; 49:175-180) after which the animals were killed and the eyeballs removed and placed in a fixative (4% paraformaldehyde). The cornea was then removed, included in paraffin and then evaluated for its morphological aspects and the cellular degeneration. The morphology was examined by means of hematoxylin-eosin staining whereas the cellular parameters were examined with vital exclusion stains and the TUNEL technique (analysis of DNA fragmentation, by means of terminal transferase, as a consequence of cellular stress) (Arch. Ophthalmol. 1987; 115:1031-1035).

[1] = test system: functional retinal status; test: functional retinal status (FERG, mfERG) in subjects with age-related maculopathy, 6 months of eye drops; type: in vivo, human; settings: for amplitudes found with the FERG / mfERG: after 6 months treatment vs before; for SCORE AFTER 6 MONTHS OF TREATMENT (ARBITRARY SCALE): three times a day for 6 months, 0 = no variation respect to time zero, −10 = worsening of the symptoms
Procedure: In order to evaluate the protective effect of the eye drops being examined on the internal structures of the eye in subjects suffering from age-related maculopathy, the following experimental procedure was carried out. 24 Subjects between 49 and 74 years of age, irrespective of gender, received for 6 months the eye drops of Example 1 (complete composition) three times a day. Subjects were subdivided into 4 equal groups and treated as reported in the following: The functional retinal status of the patients was evaluated using the focal electroretinogram (FERG) and the multifocal electroretinogram (mfERG) methods, before and after 6 months treatment. These two methods are useful for evaluating the electrical activity of the 30° retinal centres (Invest. Ophthalmol. Vis. Sci., 1986; 27: 1123-1130; Eye, 2005; 19:431-441).

[2] = solubility of 3-HKG in water; type: physicochemical; settings: amount of 0.1 mg/mL (as in WO2008/077712)

Row | solubility in water [2] | Structure (SMILES) | damage to the DNA (TUNEL) (corneal epithelium) | corneal tissue morphology (hematoxylin-eosin) (corneal epithelium) | EYE LEFT Score (arbitrary scale) (corneal epithelium) | amplitudes found with the FERG [1] | mfERG [1] | SCORE AFTER 6 MONTHS OF TREATMENT (ARBITRARY SCALE) [1] [arbitrary scale]
1 | not (completely) soluble in water | Nc1c(O[C@@H]2O[C@H](CO)[C@@H](O)[C@H](O)[C@H]2O)cccc1C(=O)CC(N)C(=O)O (mixture of isomers) [Group 3, 3-Hydroxykynurenine O-β-DL-glucoside] | no damage to the DNA was seen | tissue appeared damaged although this was not very apparent | 4 | substantial stability | significant worsening | −4
2 |  | C[N+](C)(C)C[C@H](O)CC(=O)[O-] [Group 2, L-carnitine] | no damage to the DNA was seen | tissue appeared damaged | 3 | reduction | significant worsening | −6
